Measured values reported in PubChem BioAssay AID1963869 (Molecular Pharmacology Branch, DTP, NCI, 2024).

Test system: KRAS patient-derived spheroids with HUVEC/MSC, viability
Assay: Anticancer human tumor 323965-272-R-J2-PDC patient-derived pancreatic carcinoma cell line growth inhibition [KRAS2]
Conditions: for IC50: curve of first compound; for viability, T/C: stronger effect = lower value
Procedure, shortened: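 Combination screen of spheroid viability in tumor-cell co-cultures with endothelial (HUVEC) and mesenchymal stem cell stroma. Each agent was tested in half-log dilutions, topping at clinical Cmax or at 10 microM without a known Cmax.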

[1] = second compound 0.1 µM, first compound 0.0316 µM
[2] = second compound 0.1 µM, first compound 0.1 µM
[3] = second compound 0.316 µM, first compound 0.0316 µM
[4] = second compound 0.316 µM, first compound 0.1 µM
[5] = second compound 1 µM, first compound 0.0316 µM
[6] = second compound 1 µM, first compound 0.1 µM
[7] = second compound 3.16 µM, first compound 0.0316 µM
[8] = second compound 3.16 µM, first compound 0.1 µM
[9] = second compound 10 µM, first compound 0.0316 µM
[10] = second compound 10 µM, first compound 0.1 µM
[11] = second compound 0.1 µM, first compound 0.000316 µM
[12] = second compound 0.1 µM, first compound 0.001 µM
[13] = second compound 0.1 µM, first compound 0.00316 µM
[14] = second compound 0.1 µM, first compound 0.01 µM
[15] = second compound 0.316 µM, first compound 0.000316 µM
[16] = second compound 0.316 µM, first compound 0.001 µM
[17] = second compound 0.316 µM, first compound 0.00316 µM
[18] = second compound 0.316 µM, first compound 0.01 µM
[19] = second compound 1 µM, first compound 0.000316 µM
[20] = second compound 1 µM, first compound 0.001 µM
[21] = second compound 1 µM, first compound 0.00316 µM
[22] = second compound 1 µM, first compound 0.01 µM
[23] = second compound 3.16 µM, first compound 0.000316 µM
[24] = second compound 3.16 µM, first compound 0.001 µM
[25] = second compound 3.16 µM, first compound 0.00316 µM
[26] = second compound 3.16 µM, first compound 0.01 µM
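Note: spheroids exposed to agents for 7 days.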
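Throughout, for viability, T/C: 100% = DMSO vehicle control viability.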

## COc1cc(Nc2ncc3c(n2)-c2ccc(Cl)cc2C(c2c(F)cccc2OC)=NC3)ccc1C(=O)O + COc1cc2nc(C)nc(NC(C)c3cc(N)cc(C(F)(F)F)c3)c2cc1OC1CCOC1
Second compound 0.1 µM
  IC50: 92400 pM
Second compound 0.316 µM
  IC50: 73500 pM
Second compound 1 µM
  IC50: < 31600 pM
Second compound 3.16 µM
  IC50: < 31600 pM
Second compound 10 µM
  IC50: < 31600 pM
[1]
  viability, T/C: 76.5%
[2]
  viability, T/C: 47.3%
Second compound 0.1 µM, first compound 0.316 µM
  viability, T/C: 35.6%
Second compound 0.1 µM, first compound 1 µM
  viability, T/C: 44.1%
Second compound 0.1 µM, first compound 3.16 µM
  viability, T/C: 53.4%
Second compound 0.1 µM, first compound 10 µM
  viability, T/C: 59.1%
[3]
  viability, T/C: 66.2%
[4]
  viability, T/C: 45.3%
Second compound 0.316 µM, first compound 0.316 µM
  viability, T/C: 35.7%
Second compound 0.316 µM, first compound 1 µM
  viability, T/C: 37.5%
Second compound 0.316 µM, first compound 3.16 µM
  viability, T/C: 51.5%
Second compound 0.316 µM, first compound 10 µM
  viability, T/C: 58.5%
[5]
  viability, T/C: 62.2%
[6]
  viability, T/C: 39.6%
Second compound 1 µM, first compound 0.316 µM
  viability, T/C: 33%
Second compound 1 µM, first compound 1 µM
  viability, T/C: 38.8%
Second compound 1 µM, first compound 3.16 µM
  viability, T/C: 44.9%
Second compound 1 µM, first compound 10 µM
  viability, T/C: 51.2%
[7]
  viability, T/C: 56.8%
[8]
  viability, T/C: 34.4%
Second compound 3.16 µM, first compound 0.316 µM
  viability, T/C: 28.4%
Second compound 3.16 µM, first compound 1 µM
  viability, T/C: 37.8%
Second compound 3.16 µM, first compound 3.16 µM
  viability, T/C: 44.3%
Second compound 3.16 µM, first compound 10 µM
  viability, T/C: 51.1%
[9]
  viability, T/C: 63.4%
[10]
  viability, T/C: 20.3%
Second compound 10 µM, first compound 0.316 µM
  viability, T/C: 24%
Second compound 10 µM, first compound 1 µM
  viability, T/C: 41.6%
Second compound 10 µM, first compound 3.16 µM
  viability, T/C: 42.8%
Second compound 10 µM, first compound 10 µM
  viability, T/C: 36.9%

## CC(C)n1nc(-c2ccc3oc(N)nc3c2)c2c(N)ncnc21 + CC1OCC2(CCN(c3cnc(Sc4ccnc(N)c4Cl)c(N)n3)CC2)C1N
Second compound 0.1 µM
  IC50: 1230 pM
Second compound 0.316 µM
  IC50: < 316 pM
Second compound 1 µM
  IC50: < 316 pM
Second compound 3.16 µM
  IC50: < 316 pM
Second compound 10 µM
  IC50: < 316 pM
[11]
  viability, T/C: 77%
[12]
  viability, T/C: 52.3%
[13]
  viability, T/C: 36.2%
[14]
  viability, T/C: 26.7%
[1]
  viability, T/C: 18.1%
[2]
  viability, T/C: 13.7%
[15]
  viability, T/C: 46.2%
[16]
  viability, T/C: 42.1%
[17]
  viability, T/C: 31.8%
[18]
  viability, T/C: 21%
[3]
  viability, T/C: 12.4%
[4]
  viability, T/C: 5.7%
[19]
  viability, T/C: 47.9%
[20]
  viability, T/C: 35.9%
[21]
  viability, T/C: 26.8%
[22]
  viability, T/C: 15.6%
[5]
  viability, T/C: 7.51%
[6]
  viability, T/C: 2.03%
[23]
  viability, T/C: 36.2%
[24]
  viability, T/C: 27%
[25]
  viability, T/C: 21.4%
[26]
  viability, T/C: 10.4%
[7]
  viability, T/C: 4.33%
[8]
  viability, T/C: 1.32%
Second compound 10 µM, first compound 0.000316 µM
  viability, T/C: 28.1%
Second compound 10 µM, first compound 0.001 µM
  viability, T/C: 22.7%
Second compound 10 µM, first compound 0.00316 µM
  viability, T/C: 15.6%
Second compound 10 µM, first compound 0.01 µM
  viability, T/C: 6.84%
[9]
  viability, T/C: 1.96%
[10]
  viability, T/C: 0.92%

## CC(=O)Nc1cccc(-n2c(=O)n(C3CC3)c(=O)c3c(Nc4ccc(I)cc4F)n(C)c(=O)c(C)c32)c1 + C=CC(=O)N1CCN(c2nc(OCC3CCCN3C)nc3c2CCN(c2cccc4cccc(C)c24)C3)CC1CC#N
Second compound 0.0316 µM
  IC50: 1710 pM
Second compound 0.1 µM
  IC50: 644 pM
Second compound 0.316 µM
  IC50: 255 pM
Second compound 1 µM
  IC50: 361 pM
Second compound 3.16 µM
  IC50: < 100 pM
Second compound 0.0316 µM, first compound 0.0001 µM
  viability, T/C: 62.1%
Second compound 0.0316 µM, first compound 0.000316 µM
  viability, T/C: 63.8%
Second compound 0.0316 µM, first compound 0.001 µM
  viability, T/C: 53.4%
Second compound 0.0316 µM, first compound 0.00316 µM
  viability, T/C: 44%
Second compound 0.0316 µM, first compound 0.01 µM
  viability, T/C: 34.1%
Second compound 0.0316 µM, first compound 0.0316 µM
  viability, T/C: 23.9%
Second compound 0.1 µM, first compound 0.0001 µM
  viability, T/C: 64.4%
[11]
  viability, T/C: 56.8%
[12]
  viability, T/C: 46.8%
[13]
  viability, T/C: 35.4%
[14]
  viability, T/C: 32.1%
[1]
  viability, T/C: 22.7%
Second compound 0.316 µM, first compound 0.0001 µM
  viability, T/C: 56.7%
[15]
  viability, T/C: 46.6%
[16]
  viability, T/C: 43.6%
[17]
  viability, T/C: 31.6%
[18]
  viability, T/C: 27.4%
[3]
  viability, T/C: 18.8%
Second compound 1 µM, first compound 0.0001 µM
  viability, T/C: 56.6%
[19]
  viability, T/C: 53.8%
[20]
  viability, T/C: 40%
[21]
  viability, T/C: 37.2%
[22]
  viability, T/C: 28.3%
[5]
  viability, T/C: 18.9%
Second compound 3.16 µM, first compound 0.0001 µM
  viability, T/C: 26%
[23]
  viability, T/C: 28.5%
[24]
  viability, T/C: 17%
[25]
  viability, T/C: 22.4%
[26]
  viability, T/C: 4.06%
[7]
  viability, T/C: 5.52%
